Reference: ChEMBL document CHEMBL1124830, “Synthesis, brain uptake, and pharmacological properties of a glyceryl lipid containing GABA and the GABA-T inhibitor gamma-vinyl-GABA” (J Med Chem, 1990)

Legend:
Mus musculus [1] = species on record: Mus musculus; test: Dose required to produce a 50% reduction in general motor activity after injection in mice; format: functional
[2] = Partition coefficient of the compound; format: ADME; conditions: octanol/water
[3] = Brain penetration index calculated as ([Brain]/[Liver])x100 @ 5 min after sc administration in mice at 3-39 mg/kg; format: functional
Mus musculus [4] = species on record: Mus musculus; conditions: 3-39 mg/kg
Mus musculus [5] = species on record: Mus musculus; conditions: Liver
Mus musculus [6] = test: Concentration of brain in mice after sc administration at 33 mg/kg; format: functional, organism-based; design: dose 33 mg/kg
Rattus norvegicus = species on record: Rattus norvegicus; test: Inhibitory concentration that suppress the CA1 population spike in rat hippocampus slices; format: functional, organism-based
[7] = Brain penetration index calculated as ([Brain]/[Liver])x100 @ 5 min after sc administration in mice at 33 mg/kg; format: functional; conditions: route subcutaneous
Mus musculus [8] = test: Concentration of liver in mice after sc administration at 33 mg/kg; format: functional, organism-based; design: dose 33 mg/kg

| Structure (SMILES) | Dose (Mus musculus [1]) | Partition coefficient [2] | BPI [3] | Concentration (nM (g of tissue)-1) (Mus musculus [4]) | Concentration (nM (g of tissue)-1) (Mus musculus [5]) | Concentration (nM (g of tissue)-1) (Mus musculus [6]) | IC50 (Rattus norvegicus) | BPI [7] | Concentration (nM (g of tissue)-1) (Mus musculus [8]) |
| --- | --- | --- | --- | --- | --- | --- | --- | --- | --- |
| C=CC(N)CCC(=O)O (stereo unspecified) [VIGABATRIN] | 9000 µM/kg |  |  |  |  |  |  |  |  |
| NCCCC(=O)O [GAMMA-AMINOBUTYRIC ACID] |  | 0.004 | 1 | 0.04 | 4.17 |  |  |  |  |
| C=CC(N)CCC(=O)OCC(COC(=O)CCCCCCC/C=C\C/C=C\C/C=C\CC)OC(=O)CCCN (stereo unspecified) | 25 µM/kg | 1.76 |  |  |  | 8.34 | 800 µM | 97 | 8.94 |
